We go through one molecule from US9290551B2, “Compounds for treating papilloma virus infection” (NanoVir, LLC, priority 2012, dated 2016).

Series [1] relates to HPV 16. Put plainly: HPV 16 episome DNA levels in W12E cells by Q-PCR (Taqman). Type of series: cell-based, Human papilloma virus.
Another series concerns HPV18. The series is described as follows: HPV18 DNA levels in keratinocytes by real-time PCR. The format is cell-based, Human papilloma virus. The following applies: effective (pseudo) IC50. On the technique in general: In qPCR the cycle at which signal appears reflects the starting amount.
The subject of another series is HPV31. Put plainly: HPV31 DNA levels in keratinocytes by real-time PCR. The following applies: effective (pseudo) IC50. The format is cell-based, Human papilloma virus. In short, it runs like this:
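Keratinocytes maintaining HPV episomes on mitomycin C-treated J2 3T3 feeders in E media were exposed to polyamides at 0.1-10 μM final (0.1% DMSO; untreated and vehicle controls). Hirt-isolated episomal DNA was quantified by TaqMan real-time PCR with L1-gene primers/probe in triplicate, against a cloned-genome standard curve, and expressed as HPV copies per cell.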

The subject of series [2] is rat hepatoma cells (H4IIE). Type of series: cell-based. As for the experimental part:
Toxicity testing has been carried out for 3 separate polyamides. Two different Rat hepatoma assays were used because they are industry standards for predicting in vivo toxicity. The assays for ATP and membrane integrity assays are described in detail below. Thus, rat hepatoma cells (H4IIE) were seeded into 96-well plates and cultured in medium containing 20% bovine serum. Following an equilibration period of 48 hr, the cells were treated with the test compounds at various concentrations for 24 hr at 37° C. in 5% CO2. Polyamide compounds were tested for toxicity in the two separate assays. A TC50 (concentration needed to kill half of the cells) was not achieved for any polyamides tested over the wide concentration range explored.

For series [3], the system named is HPV 16. Put plainly: HPV 16 episome DNA levels in W12E cells by Q-PCR (Taqman). The format is cell-based, Human papilloma virus. The following applies: 10 μM, drug washed out on day 17, sub-cultured without drug for 2 weeks; FIG. 7.

pIC50: −log10 of the molar value. Where two headings read alike, the source gives them in different places. A value given as a limit tells only on which side of the number the result lay.

One may read the pIC50 as the IC50 on a negative log10 scale, so that one unit is a factor of ten. A word on the CC50: it is the concentration giving 50% cytotoxicity. Lower therefore signals harm at low concentration.

With `CN(CCCN)CCCNC(=O)CCNC(=O)c1cc(NC(=O)c2cc(NC(=O)c3cc(NC(=O)c4cc(NC(=O)CCNC(=O)c5cc(NC(=O)c6cc(NC(=O)CCCNC(=O)c7cc(NC(=O)c8cc(NC(=O)c9cc(NC(=O)CCNC(=O)c%10cc(NC(=O)c%11cc(NC(=O)c%12nccn%12C)cn%11C)cn%10C)cn9C)cn8C)cn7C)cn6C)cn5C)cn4C)cn3C)cn2C)cn1C` [Polyamide 1028, ImPPβPPPγPPβPPPPβTa], the “HPV episomes by QPCR” value with HPV 16 [1] (concentrations as low as 5 μM) is listed as “undetectable levels”. Further, the pIC50 in the series with HPV 16 [1] (effective (pseudo) IC50, 50% reduction in HPV DNA relative to vehicle (0.1% DMSO), read-out: HPV-16 IC50) was 6.00 to 7.00; with HPV 16 [1] (read-out: IC50 against HPV 16) it was 7.00; in the series on HPV18, 6.00 to 7.00; in the series with HPV31 it was 6.00 to 7.00. In addition, in the series on HPV 16 [1] (higher doses, in some experiments, FIG. 3), the “effect on absolute HPV 16 DNA levels” value is reported as “nearly complete elimination of detectable viral DNA”. The molecule also came in with a CC50 in series [2] above 300000 nM. Moreover, the “HPV 16 episomal DNA rebound after withdrawal” value in the series with HPV 16 [3] is listed as “recovery does not approach control levels for at least two weeks”.
